Patent US20230146455A1, “TREATMENT OF INFLAMMATORY DISEASES WITH PEPTIDES AND PHARMACEUTICAL COMPOSITIONS” (Yuyu Pharma, Inc., priority 2020, published 2023)
Where “and” joins values, the source holds several entries; their conditions need not be identical. Equal values may be shown once. Where a SMILES comes first, the peptide text is derived from it. [ ]: non-standard residue; d: D form. Hyp = O=C(O)[C@@H]1C[C@@H](O)CN1

Legend:
MMP-9 = test: Example 9 Luminex, LPS hPBMCs: MMP-9; type: cell-based, human
Procedure: (§1) Treatment Human PBMCs were pretreated with YY-101, YDE-011 and YDE-043 or reference compound; Xiidra® at various concentration (ranging from 1 nM to 100 uM) for 2 h before stimulation. An equal volume of 0.5% DMSO was used as a vehicle control. Then, the cells were treated with LPS at 5 ug/ml. The supernatants from treated cells were harvested at 24 h and placed in a 96 well for Luminex cytokine & chemokine profiling using a Luminex 200 multiplex assay (Luminex; R&D system, USA).
(§2) The main study arm with triplicate wells per group in a 24-well plate: • 1. Blank • 2. PBMC: 0.5% DMSO • 3. PBMC+LPS (5 ug/ml) • 4. PBMC+YY-101 100 uM • 5. PBMC+YY-101 10 uM • 6. PBMC+YY-101 1 uM • 7. PBMC+YY-101 0.1 uM • 8. PBMC+YY-101 0.01 uM • 9. PBMC+LPS (5 ug/ml)+Xiidra®100 uM • 10. PBMC+LPS (5 ug/ml)+Xiidra® 10 uM • 11. PBMC+LPS (5 ug/ml)+Xiidra® 1 uM • 12. PBMC+LPS (5 ug/ml)+Xiidra®0.1 uM • 13. PBMC+LPS (5 ug/ml)+Xiidra®0.01 uM • 14. PBMC+LPS (5 ug/ml)+Xiidra®0.001 uM • 15. PBMC+LPS (5 ug/ml)+YY-101 100 uM • 16. PBMC+LPS (5 ug/ml)+YY-101 10 uM • 17. PBMC+LPS (5 ug/ml)+YY-101 1 uM • 18. PBMC+LPS (5 ug/ml)+YY-101 0.1 uM • 19. PBMC+LPS (5 ug/ml)+YY-101 0.01 uM • 20. PBMC+LPS (5 ug/ml)+YY-101 0.001 uM • 21. PBMC+LPS (5 ug/ml)+YDE-011 100 uM • 22. PBMC+LPS (5 ug/ml)+YDE-011 10 uM • 23. PBMC+LPS (5 ug/ml)+YDE-011 1 uM • 24. PBMC+LPS (5 ug/ml)+YDE-011 0.1 uM • 25. PBMC+LPS (5 ug/ml)+YDE-011 0.01 uM • 26. PBMC+LPS (5 ug/ml)+YDE-011 0.001 uM • 27. PBMC+LPS (5 ug/ml)+YDE-043 100 uM • 28. PBMC+LPS (5 ug/ml)+YDE-043 10 uM • 29. PBMC+LPS (5 ug/ml)+YDE-043 1 uM • 30. PBMC+LPS (5 ug/ml)+YDE-043 0.1 uM • 31. PBMC+LPS (5 ug/ml)+YDE-043 0.01 uM • 32. PBMC+LPS (5 ug/ml)+YDE-043 0.001 uM
(§3) Multiplex assay was used to measure 30 cytokines and chemokines. The 1:2, 1:10 and 1:200 diluted cell supernatant and serial dilution of the standard were dispensed into a 96 well plate at 50 ul/well. Then, the pre-mixed cocktail of antibody-coated magnetic beads was dispensed at 50 ul/well and incubated at room temperature for 2 h in a horizontal orbital microplate shaker at 800±500 rpm. The beads were washed using a magnetic device to prevent loss. The biotin-antibody was dispensed in 50 ul of each well and incubated at room temperature for 1 h in a shaker at 800±500 rpm. After washing, streptavidin-PE was added at 50 ul/well and incubated at room temperature for 30 min in a shaker under the same conditions. Finally, after washing, wash buffer (100 ul/well) was added to the plate and incubated in a shaker for 2 min. The Luminex™ 200 setting were set according to the manufacturer's protocol. The data was calculated with a standard five-parameter logistic nonlinear regression analysis of the data (xPonent software 4.2, USA). The levels of cytokine/chemokine are normalized to the live cell counts (1×10^5 cells/mL) and presented as concentrations per mL (pg/mL or ng/mL).

Fas Ligand = test: Example 9 Luminex, LPS hPBMCs: Fas Ligand; type: cell-based, human; conditions: for Fas Ligand Concentration / Fas Ligand conc/live cell / MFI, bead Fas Ligand: single replicates
Procedure: as §1, §2, §3

[1] = PBMC + LPS(5 ug/ml) + 0.001 uM, Mean
[2] = PBMC + LPS(5 ug/ml) + 0.001 uM, single replicates
[3] = PBMC + LPS(5 ug/ml) + 0.01 uM, Mean
[4] = PBMC + LPS(5 ug/ml) + 0.01 uM, single replicates
[5] = PBMC + LPS(5 ug/ml) + 0.1 uM, Mean
[6] = PBMC + LPS(5 ug/ml) + 0.1 uM, single replicates
[7] = PBMC + LPS(5 ug/ml) + 1 uM, Mean
[8] = PBMC + LPS(5 ug/ml) + 1 uM, single replicates
[9] = PBMC + LPS(5 ug/ml) + 10 uM, Mean
[10] = PBMC + LPS(5 ug/ml) + 10 uM, single replicates
[11] = PBMC + LPS(5 ug/ml) + 100 uM, Mean
[12] = PBMC + LPS(5 ug/ml) + 100 uM, single replicates
[13] = PBMC + LPS(5 ug/ml) + test article 0.001 uM
[14] = PBMC + LPS(5 ug/ml) + test article 0.01 uM
[15] = PBMC + LPS(5 ug/ml) + test article 0.1 uM
[16] = PBMC + LPS(5 ug/ml) + test article 1 uM
[17] = PBMC + LPS(5 ug/ml) + test article 10 uM
[18] = PBMC + LPS(5 ug/ml) + test article 100 uM

## CC(C)C[C@H](NC(=O)CNC(=O)[C@H](CC(C)C)NC(=O)[C@H](CCC(N)=O)NC(=O)CNC(=O)[C@@H]1C[C@@H](O)CN1)C(=O)N[C@@H](C)C(=O)NCC(=O)N1CCC[C@H]1C(=O)N[C@@H](CCCCN)C(=O)O [YDE-011] (H-[Hyp]GQLGLAGPK-OH)
MMP-9; [1]
  MMP-9 Concentration: 206.3 pg/mL
  MMP-9 conc/live cell: 39.4 pg/10^5
MMP-9; [2]
  MMP-9 Concentration: 228.2 pg/mL and 186.3 pg/mL and 204.5 pg/mL
  MMP-9 conc/live cell: 50.7 pg/10^5 and 32.1 pg/10^5 and 35.3 pg/10^5
MMP-9; [3]
  MMP-9 Concentration: 180.2 pg/mL
  MMP-9 conc/live cell: 31.1 pg/10^5
MMP-9; [4]
  MMP-9 Concentration: 174.0 pg/ml (2×) and 192.4 pg/ml
  MMP-9 conc/live cell: 27.6 pg/10^5 and 28.1 pg/10^5 and 37.7 pg/10^5
MMP-9; [5]
  MMP-9 Concentration: 180.2 pg/mL
  MMP-9 conc/live cell: 31.5 pg/10^5
MMP-9; [6]
  MMP-9 Concentration: 192.4 pg/ml and 174.0 pg/ml (2×)
  MMP-9 conc/live cell: 29.2 pg/10^5 and 34.8 pg/10^5 and 30.5 pg/10^5
MMP-9; [7]
  MMP-9 Concentration: 188.3 pg/mL
  MMP-9 conc/live cell: 37.5 pg/10^5
MMP-9; [8]
  MMP-9 Concentration: 192.4 pg/ml (2×) and 180.2 pg/ml
  MMP-9 conc/live cell: 35.0 pg/10^5 and 37.5 pg/10^5 and 40.1 pg/10^5
MMP-9; [9]
  MMP-9 Concentration: 190.4 pg/mL
  MMP-9 conc/live cell: 36.1 pg/10^5
MMP-9; [10]
  MMP-9 Concentration: 186.3 pg/ml (2×) and 198.5 pg/ml
  MMP-9 conc/live cell: 34.5 pg/10^5 and 34.2 pg/10^5 and 39.6 pg/10^5
MMP-9; [11]
  MMP-9 Concentration: 167.8 pg/mL
  MMP-9 conc/live cell: 27.7 pg/10^5
MMP-9; [12]
  MMP-9 Concentration: 167.8 pg/mL and 174.0 pg/mL and 161.5 pg/mL
  MMP-9 conc/live cell: 27.5 pg/10^5 and 28.5 pg/10^5 and 26.9 pg/10^5
Fas Ligand; [13]
  Fas Ligand Concentration, Mean: 16.8 pg/mL
  Fas Ligand conc/live cell, Mean: 3.2 pg/10^5
  MFI, bead Fas Ligand, Mean: 22.7
  Fas Ligand Concentration: 15.7 pg/mL and 18.4 pg/mL and 16.4 pg/mL
  Fas Ligand conc/live cell: 3.5 pg/10^5 and 3.2 pg/10^5 and 2.8 pg/10^5
  MFI, bead Fas Ligand: 21.0 and 25.0 and 22.0
Fas Ligand; [14]
  Fas Ligand Concentration, Mean: 15.5 pg/mL
  Fas Ligand conc/live cell, Mean: 2.7 pg/10^5
  MFI, bead Fas Ligand, Mean: 20.7
  Fas Ligand Concentration: 17.1 pg/mL and 13.7 pg/mL and 15.7 pg/mL
  Fas Ligand conc/live cell: 2.7 pg/10^5 and 2.2 pg/10^5 and 3.1 pg/10^5
  MFI, bead Fas Ligand: 23.0 and 18.0 and 21.0
Fas Ligand; [15]
  Fas Ligand Concentration, Mean: 17.3 pg/mL
  Fas Ligand conc/live cell, Mean: 3.0 pg/10^5
  MFI, bead Fas Ligand, Mean: 23.3
  Fas Ligand Concentration: 19.1 pg/mL and 17.7 pg/mL and 15.0 pg/mL
  Fas Ligand conc/live cell: 2.9 pg/10^5 and 3.5 pg/10^5 and 2.6 pg/10^5
  MFI, bead Fas Ligand: 26.0 and 24.0 and 20.0
Fas Ligand; [16]
  Fas Ligand Concentration, Mean: 15.9 pg/mL
  Fas Ligand conc/live cell, Mean: 3.2 pg/10^5
  MFI, bead Fas Ligand, Mean: 21.3
  Fas Ligand Concentration: 17.4 pg/mL and 15.4 pg/mL and 15.0 pg/mL
  Fas Ligand conc/live cell: 3.2 pg/10^5 (2×) and 3.1 pg/10^5
  MFI, bead Fas Ligand: 23.5 and 20.5 and 20.0
Fas Ligand; [17]
  Fas Ligand Concentration, Mean: 17.3 pg/mL
  Fas Ligand conc/live cell, Mean: 3.3 pg/10^5
  MFI, bead Fas Ligand, Mean: 23.3
  Fas Ligand Concentration: 19.7 pg/mL and 17.7 pg/mL and 14.4 pg/mL
  Fas Ligand conc/live cell: 3.7 pg/10^5 and 3.1 pg/10^5 (2×)
  MFI, bead Fas Ligand: 27.0 and 24.0 and 19.0
Fas Ligand; [18]
  Fas Ligand Concentration, Mean: 13.3 pg/mL
  Fas Ligand conc/live cell, Mean: 2.2 pg/10^5
  MFI, bead Fas Ligand, Mean: 17.3
  Fas Ligand Concentration: 11.7 pg/mL and 13.1 pg/mL and 15.0 pg/mL
  Fas Ligand conc/live cell: 1.9 pg/10^5 and 2.1 pg/10^5 and 2.5 pg/10^5
  MFI, bead Fas Ligand: 15.0 and 17.0 and 20.0
